Here are results for three compounds from US6777389B1, “Cosmetic or dermatological use of 7-hydroxylated steroids in combination with elastin derived peptides” (Connective Tissue Imagineering LLC, priority 1998, dated 2004).

A short description of series [1]: In-vitro oxygen radical assay with luminol and hydrogen peroxide (Example 2). The following applies: luminol pre-incubated with compound at 100 μg/ml. It counts as biochemical. Here is the method: The ability of a compound to scavenge free radicals implicates it as an antioxidizing agent that could help to reduce the natural oxidizing effects of aging. In a first test of whether DHEA or it derivatives have the ability to capture free radicals, an in-vitro oxygen radical assay was devised, The assay was run in quadruplicate to perfect the concentrations of controls as well as test the diluents (phosphate buffered saline (PBS) and DMSO) in which the DHEA and its derivatives were dissolved. The positive controls used were homocysteine and ascorbic acid (Vitamin C).

The subject of another series is collagen content of skin. Briefly: Collagen content of neonatal rat skin by hydroxyproline evaluation (Example 3). Format: in vivo, neonatal male Sprague-Dawley rats. The following applies: 0.5% in carrier, twice daily, 30 days, five animals per group. Here is the method:
(§1) Chemical alterations in the skins of neonatal male Sprague-Dawley rats.
(§2) Collagen and elastin contents were measured on dry, defatted, hair-free skin samples. Collagen contents were assessed through hydroxyproline evaluations in hydrolyzed, 0.1N hot sodium hydroxide extracts. Elastin contents were measured by HPLC evaluation of the contents of thermolysin-produced peptides in digests of the hot sodium hydroxide residue. Controls were both shaven and unshaven, the shaven receiving only the carrier twice daily.
(§3) Elastin contents were increased by all the compounds (28% for DHEA, 30% for the 7 hydroxy and the 7 hydroxy-isoandrosterone). In these studies statistical analysis of variance was significant at an alpha level of 0.01. Similar to the histologic observations, these chemistries are reversible. Collagen and elastin contents returned to near normal levels after cessation of treatment for 30 days.

The next series deals with elastin content of skin. Briefly: Elastin content of neonatal rat skin by HPLC of thermolysin-produced peptides (Example 3). The following applies: 0.5% in carrier, twice daily, 30 days, five animals per group. Format: in vivo, neonatal male Sprague-Dawley rats. Here is the method: as §1, §2, §3
In the next series the test system is thymocytes. Put plainly: Glucocorticoid-induced apoptosis of thymocytes, flow cytometry with propidium iodide (Example 4). The following applies: 6 hours. It counts as cell-based, mouse C57BL/6. Here is the method:
Effects of 3β,7α-dihydroxy-5-androstene-17-one (7α-hydroxy-DHEA) and of 3β,7α-dihydroxy-5α-androstane-17-one (7α-hydroxy-ISOA) on the cellular apoptosis induced by glucocorticoids.
The thymus of a mouse C57BL/6 age four weeks was removed. Culture of the thymocytes was carried out for 6 hours in a RPMI 1640 medium and in the presence or in the absence of the steroid tested. The apoptosis (fragmentation of the DNA) was measured by flow cytometry after marking with propidium iodide. The apoptotic phenomenon was controlled by electrophoresis of the DNA developed by ethidium bromide according to the traditional technique (observation of ladders of 200 pairs of bases).
In general terms: Flow cytometry measures light scatter and fluorescence of single cells or particles in a stream.

Series [2] deals with human keratinocytes. Put plainly: Viability of human keratinocytes in culture, MTT test (Example 5). It counts as cell-based. Here is the method:
Effects of 3β,7α-dihydroxy-5-androstene-17-one (7α-hydroxy-DHEA) on the viability of human keratinocytes in culture.
Human keratinocytes were obtained from surgical items and were cultivated in a monolayer until preconfluence. The 7α-hydroxy-DHEA was administered to these cultures at various concentrations in ethanolic solution (10%), each concentration being tested eight times. Controls were carried out with ethanol alone (10%). After twenty-four hours, the viability of the keratinocytes was measured by testing with MTT (3-(4,5-dimethylthiazol-2-yl)-2,5 diphenyl tetrazolium bromide) where the mitochondrial dehydrogenase succinate converts the MTT into blue crystals of formazan soluble in DMSO (Mosmann, J. Immunol. Methods 65: 55-63, 1983). The cellular viability is calculated according to the formula:
Any value greater than 100 indicates a product that encourages cellular viability.
For orientation: Tetrazolium dyes change colour on reduction, which living cells bring about.

Another series deals with human fibroblasts. Put plainly: Proliferation of human fibroblasts in culture, cell count (Example 6). It counts as cell-based. To be noted: 72 hours of contact, control 190,667 ± 6,766. Here is the method: Effects of 3β,7α-dihydroxy-5-androstene-17-one (7α-hydroxy-DHEA) on the proliferation of human fibroblasts in culture.
The cultures of human fibroblasts (person) were seeded on twenty-four site plates at the rate of 50,000 cells per site in a standard culture medium (DMEM, gentamycine, amphotericine B, penicillin, L-glutamine, 10% SVF). The tests were carried out on four series of three sites. After twenty-four hours, the fibroblasts adhered to the support and three series were treated with 7α-hydroxy-DHEA at concentrations of 10^−6 M, 6. 10^−6 M and 10^−7 M. The fourth series only contained the vector (ethanol). The media were renewed daily, and at ninety-six hours (seventy-two hours of test contact with the 7α-hydroxy-DHEA), the fibroblasts were counted on a Malassez cell in the presence of blue trypan.

The subject of series [3] is human keratinocytes. Put plainly: Anti-radical effect on UVA-irradiated human keratinocyte suspension, lipid peroxide chemiluminescence (Example 7). Format: cell-based. To be noted: UVA irradiated 30 minutes, 10^−6 M. The text has this: The anti-radical effects of 3β,7α-dihydroxy-5-androstene-17-one (7α-hydroxy-DHEA) on a suspension of human keratinocytes.
Keratinocytes from a healthy donor were cultivated to the subconfluent stage in a specific medium (KGM) for the proliferation of keratinocytes. The suspensions obtained were split up, in triplicate, into four series, of which three were irradiated for thirty minutes with a lamp […] UVA so as to speed up the production of free radicals. Among the three irradiated series, one contained Vitamins C and E (0.7%) and was used as a protection reference, one contained 7α-hydroxy-DHEA at 10^−6 M and the last served as a control. Table D below reports on the measurement of the anti-radical effects.
The free radicals produced generate lipoid peroxides which are measured by chemiluminescence (Belghmi et al. J Biolum. Chemilum. 2: 113-119, 1982). The effectiveness of the 7α-hydroxy-DHEA was calculated on the basis of non-irradiated controls and the protection reference.

Series [4] relates to elastin content of the skin. Put plainly: Elastin content of rat skin after 30 days of topical treatment (FIG. 1). Format: in vivo, Sprague-Dawley male rat. To be noted: topical 5% concentration of DHEA, similar time period, three animals. The text has this:
In FIG. 1, S CONTR represents the Shaven Control and US CONTR represents the Unshaven Control. FIG. 1 illustrates that the present invention has the advantageous qualities of enhancing the softness or elasticity of the skin by increasing the endogenous production of elastin in the skin. The present invention is also directed to a method of improving the texture of skin, specifically the physical appearance of the skin by improving the endogenous production of elastin. The method of the present invention employs any of a number of known administrative routes such as oral, IV, subcutaneous, transcutaneous, and topical administration. […]
It is preferable that the topical administration of the composition of the present invention occur repeatedly over a predetermined time period, preferably in the range of about one week to about one month. […] Testing illustrated that the endogenous elastin (measured by microgram (μg) Elastin per milligram (mg) Skin Fat Free Dry weight) of each of the rats to which the administration was applied doubled over that of a control sample and to a sample which was treated with a 5% concentration of DHEA over a similar time period. […] The data of FIG. 1 are significant at an alpha level less than 0.001 as determined by analysis of variance. […]

The test system of the next series is rat skin dermal layer. Briefly: Histologic examination of H&E stained rat skin cross sections (Example 1). Format: in vivo. The text has this:
7 hydroxy DHEA and 7 hydroxy isoandrosterone treated rat skin.
Upon histologic examination of hematoxylin and eosin (H&E) stained rat skin cross sections, a striking physical change was noted. […] This finding was consistent and most pronounced when the parent compound (DHEA) was used on young, healthy rats. However, it also occurred in replicate experiments when the derivatives were used. […] The latter two findings support the toxicologic studies, done concomitantly, which found no significant toxicity when the compounds were used at 0.5% concentration in a suitable carrier applied twice daily (12 hour intervals) for 30 days. […] A subset of experimental animals within each treatment group were left untreated for 30 days. Upon examination, treated skin sections were indistinguishable from the untreated.

The mark [5] stands for this setting: steroid 10^−5 M with Dexamethasone 10^−5 M.
Setting [6] is: steroid 10^−6 M with Dexamethasone 10^−6 M.

Consider `C[C@]12CC[C@H](O)CC1=C[C@@H](O)[C@@H]1[C@@H]2CC[C@]2(C)C(=O)CC[C@@H]12` [7α-hydroxy-DHEA, 3β,7α-dihydroxy-5-androstene-17-one], for which the “reduction of light emission from luminol” value in series [1] is given as “did not cause any reduction”. In the series on collagen content of skin, this compound showed a collagen increase of 24%. Moreover, the elastin content increase with elastin content of skin is 30%. The Apoptotic cells in the series with thymocytes (setting [5]) turned out to be 48.6%; in the series on thymocytes (setting [6]) it was 58.8%. Also, the “Viability of the keratinocytes” value in the series with human keratinocytes [2] (5 · 10^−5 M, 24 hours, control = 100) is recorded as 111 ± 7%; in the series with human keratinocytes [2] (5 · 10^−6 M, 24 hours, control = 100), 147 ± 9%; with human keratinocytes [2] (5 · 10^−7 M, 24 hours, control = 100), 139 ± 3%; in the series with human keratinocytes [2] (10^−4 M, 24 hours, control = 100) it was 124 ± 10%; with human keratinocytes [2] (10^−5 M, 24 hours, control = 100), 119 ± 7%; in the series with human keratinocytes [2] (10^−6 M, 24 hours, control = 100), 154 ± 6%. The “Viability of the keratinocytes” value worked out at 147 ± 5% in the series on human keratinocytes [2] (10^−7 M, 24 hours, control = 100) and 127 ± 3% in the series on human keratinocytes [2] (10^−8 M, 24 hours, control = 100). Besides, the cytotoxicity entry with human keratinocytes [2] (10^−4 M to 10^−8 M) is “no cytotoxicity was observed”. In addition, the “effect on viability of human keratinocytes” value in the series on human keratinocytes [2] (concentrations between 10^−4 M and 10^−8 M) is recorded as “significantly increases the viability”. The “Number of Fibroblasts” value in the series on human fibroblasts (5 · 10^−6 M) is recorded as 258,667 ± 3,351; in the series with human fibroblasts (10^−6 M) it was 268,000 ± 27,154; in the series on human fibroblasts (10^−7 M) it was 230,667 ± 8,511. In addition, the Effectiveness in the series with human keratinocytes [3] (calculated from non-irradiated controls and protection reference) is 90%. Also, in the series with human keratinocytes [3] (irradiated controls 427,750 ± 137,322), the Chemiluminescence is listed as 44,164 ± 13,303.

In the case of `C[C@]12CC[C@H](O)C[C@@H]1C[C@@H](O)[C@@H]1[C@@H]2CC[C@]2(C)C(=O)CC[C@@H]12` [7α-hydroxy-ISOA, 3β,7α-dihydroxy-5α-androstane-17-one], the “reduction of light emission from luminol” value in series [1] was 15%. In addition, the collagen increase in the series on collagen content of skin amounted to 24%. In the series on elastin content of skin, the elastin content increase is given as 30%. Besides, the Apoptotic cells in the series with thymocytes (setting [5]) is recorded as 46.3%; with thymocytes (setting [6]), 72.0%.

In the case of `C[C@]12CC[C@H](O)CC1=CC[C@@H]1[C@@H]2CC[C@]2(C)C(=O)CC[C@@H]12` [DHEA, 3β-hydroxy-5-androstene-17-one, reference compound], the “endogenous elastin (mean)” value in series [4] is recorded as 1.753 microgram (μg) Elastin per milligram (mg) Skin Fat Free Dry weight. The “thickness of the dermal layer of skin” value in the series on rat skin dermal layer (0.5% in carrier, twice daily, 30 days, vs shaven and unshaven untreated controls) is on record as “thickened to nearly twice that of the untreated controls”. Moreover, in the series with rat skin dermal layer (animals left untreated for 30 days after treatment), the “reversibility of dermal thickening” value is listed as “completely reversible”. Further, the “reduction of light emission from luminol” value in series [1] stood at 20%. The compound also returned a collagen decrease with collagen content of skin of 16%. In the series on elastin content of skin, this compound registered an elastin content increase of 28%. Besides, the Apoptotic cells in the series on thymocytes (setting [5]) stood at 51.4%; in the series with thymocytes (setting [6]), 39.0%. Moreover, the “Viability of the keratinocytes” value with human keratinocytes [2] (other comparative tests, concentration not given) turned out to be 100±5.
